Earlier results as cited in patent publication US20240041741A1, “COSMETIC COMPOSITION OBTAINED BY MIXING TWO SILANE BLENDS” (Henkel AG & Co. KGaA, priority 2020, published 2024).

Conditions: for solubility in water: 25° C.

O=S(=O)([O-])c1ccc(N=Nc2c(O)ccc3ccccc23)cc1.[Na+] [Acid Orange 7, sodium salt of 4-[(2-hydroxy-1-naphthyl)azo]benzene sulphonate]
solubility in water: more than 7 g/L

Nc1cc(S(=O)(=O)[O-])cc2cc(S(=O)(=O)[O-])c(N=Nc3ccccc3)c(O)c12.[Na+].[Na+] [Acid Red 33, diantrium salt of 5-amino-4-hydroxy-3-(phenylazo)-naphthalene-2,7-disulphonate]
solubility in water: 2.5 mg/mL

O=C([O-])c1c(Cl)c(Cl)c(Cl)c(Cl)c1-c1c2c(Br)cc(=O)c(Br)c-2oc2c(Br)c(O)cc(Br)c12.O=C([O-])c1c(Cl)c(Cl)c(Cl)c(Cl)c1-c1c2c(Br)cc(=O)c(Br)c-2oc2c(Br)c(O)cc(Br)c12.[Na+].[Na+] [Acid Red 92, disodium salt of 3,4,5,6-tetrachloro-2-(1,4,5,8-tetrabromo-6-hydroxy-3-oxoxanthen-9-yl)benzoic acid]
solubility in water: greater than 10 g/L

O=C([O-])C1=NN(c2ccc(S(=O)(=O)[O-])cc2)C(=O)C1N=Nc1ccc(S(=O)(=O)[O-])cc1.[Na+].[Na+].[Na+] (centres unmarked) [Acid Yellow 23, trisodium salt of 4,5-dihydro-5-oxo-1-(4-sulfophenyl)-4-((4-sulfophenyl)azo)-1H-pyrazole-3-carboxylic acid]
solubility in water (in words) (at 25° C.): readily soluble in water

mixture of the sodium salts of mono- and sisulfonic acids of 2-(2-quinolyl)-1H-indene-1,3(2H)-dione [Acid Yellow 3]
solubility in water: 20 mg/mL
